Laboratory results as given in patent publication US20240285571A1, “METHODS OF TREATING BONE INFECTIONS” (MICROBION CORPORATION, priority 2020, published 2024).
In brackets after ≈: the same amount, converted by molar mass. Where two headings read alike, the source gives them in different places.

Key:
[1] = tested on: relevant ATCC QC organisms; settings: CLSI established QC range, cited from earlier work
E. coli ATCC 25922 = settings: per CLSI M100-S24 or provided by Microbion; cited from earlier work
S. aureus ATCC 29213 = settings: per CLSI M100-S24 or provided by Microbion; cited from earlier work
[2] = tested on: baseline pathogens at the surgical site; experiment: Phase 2a study: microbiological success / post-baseline microbiology at the index site; format: in vivo, human; settings: Subject 001-002; Subject 006-003, S. aureus (MRSA); 0.5 μg/cm^2 dose group
Protocol: Microbiology was assessed on Day 1 and at the time of any subsequent surgical procedure at the index site. Samples were collected from the infected bone site or involved tissue adjacent to any implant(s), swabs of the deep infection site, and the superficial tissue/wound closure/sinus tract site. Isolation and identification of aerobic and anerobic bacteria was conducted at a central microbiology laboratory (IHMA, Schaumburg, IL) and susceptibility of the isolates to MBN-101 (BisEDT) and comparator agents was performed per Clinical and Laboratory Standards Institute (CLSI). Parallel sets of samples were analyzed by the local clinical site laboratory to guide patient antibiotic treatment.
Clinical activity of locally administered MBN-101 was assessed by the following: • Proportion of treatment failures. […] Pain intensity at the surgical site was assessed by VAS (0 to 10 scale). • Findings of microbiology evaluations at the surgical site. Microbiologic success was assessed by clearance of infection. • Findings of radiographic evaluations at the surgical site. Radiographic success was assessed by healing on radiologic examination. • Change in serologic markers CRP and ESR at each post-baseline time point. […]

N. gonorrhoeae = N. gonorrhoeae MMX 683 (ATCC 49226); cited from earlier work
C. difficile [3] = settings: C. difficile MMX 4381 (ATCC 700057); cited from earlier work
C. difficile [4] = experiment: Agar dilution MIC, anaerobes (Example 5); format: cell-based, Clostridium difficile; settings: Clostridioides difficile, read-out: MIC
B. fragilis [5] = experiment: Agar dilution MIC, anaerobes (Example 5); format: cell-based; settings: Bacteroides fragilis, ATCC25285; B. fragilis MMX 123 (ATCC 25285); QC; read-out: MIC
B. fragilis [6] = settings: B. fragilis MMX 123 (ATCC 25285); cited from earlier work
E. coli [7] = experiment: Broth microdilution MIC (Example 5); format: cell-based, Escherichia coli
Protocol: (§1) Test and Comparator Agents: The test agents were stored at room temperature until assayed. […] The stock solutions were allowed to stand for at least 1 hr prior to use to auto-sterilize.
(§2) TestMedia: Test media were prepared and stored in accordance with guidelines from CLSI (4, 6, 7).
(§3) Broth Microdilution MC Testing (Aerobic Bacteria and Yeast): The broth microdilution assay method employed for the susceptibility testing of aerobic bacteria (excluding N. gonorrhoeae which was evaluated by agar dilution) and yeast essentially followed the procedures described by CLSI (3, 4, 7, 8) and employed automated liquid handlers to conduct serial dilutions and liquid transfers. […] These would become the ‘mother plates’ from which ‘daughter’ or test plates would be prepared. The drugs (300 μL at 40× the desired top concentration in the test plates) were dispensed into the appropriate well in Column 1 of the mother plates. The Biomek 2000 was used to make serial two-fold dilutions through Column 11 in the “mother plate”. The wells of Column 12 contained no drug and ultimately served as the organism growth control wells.
(§4) The daughter plates were prepared using the Biomek FX which transferred 5 μL of drug solution from each well of a mother plate to the corresponding well of the correct daughter plate in a single step.
(§5) A standardized inoculum of each organism was prepared per CLSI methods (3, 7). Isolated colonies of each test isolate were picked from the primary plate and a suspension was prepared to equal a 0.5 McFarland turbidity standard. Standardized suspensions were then diluted […] (1:100 for yeast, 1:20 for bacteria). After dilution, the inoculum suspensions were then transferred to compartments of sterile reservoirs divided by length (Beckman Coulter), and the Biomek 2000 was used to inoculate all plates. Daughter plates were placed on the Biomek 2000 in reverse orientation so that plates were inoculated from low to high drug concentration.
(§6) The Biomek 2000 delivered 10 μL of standardized inoculum into each well of the appropriate daughter plate for an additional 1:20 dilution.
(§7) Plates were stacked 4 high, covered with a lid on the top plate, placed into plastic bags, and incubated at 35° C. for approximately 24-48 hr for all yeast isolates and 16-24 hr for aerobic bacteria. Plates were viewed from the bottom using a plate viewer. […] MIC endpoints for the test agents and control compounds were read per CLSI criteria (3, 7).

E. cloacae = experiment: Broth microdilution MIC (Example 5); format: cell-based, Enterobacter cloacae; settings: E. cloacae MMX 5981 (ATCC BAA-2468); NDM-1
Protocol: as §1, §2
Broth Microdilution MC Testing (Aerobic Bacteria and Yeast): The broth microdilution assay method employed for the susceptibility testing of aerobic bacteria (excluding N. gonorrhoeae which was evaluated by agar dilution) and yeast essentially followed the procedures described by CLSI (3, 4, 7, 8) and employed automated liquid handlers to conduct serial dilutions and liquid transfers. […] These would become the ‘mother plates’ from which ‘daughter’ or test plates would be prepared. The drugs (300 μL at 40× the desired top concentration in the test plates) were dispensed into the appropriate well in Column 1 of the mother plates. The Biomek 2000 was used to make serial two-fold dilutions through Column 11 in the “mother plate”. […]
Plates were stacked 4 high, covered with a lid on the top plate, placed into plastic bags, and incubated at 35° C. for approximately 24-48 hr for all yeast isolates and 16-24 hr for aerobic bacteria. […] MIC endpoints for the test agents and control compounds were read per CLSI criteria (3, 7).

E. faecium = experiment: Broth microdilution MIC (Example 5); format: cell-based; settings: VRE vanA
Outline: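 CLSI broth microdilution; two-fold serial dilutions, drug-free growth-control wells. Inoculum 0.5 McFarland, diluted 1:20 in media, then a further 1:20 in wells.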

P. aeruginosa [8] = settings: P. aeruginosa MMX 103 (ATCC 27853); cited from earlier work
E. faecalis = experiment: Broth microdilution MIC (Example 5); format: cell-based, Enterococcus faecalis; settings: VRE
Protocol: as §1, §2, §3, §4, §5, §6, §7

A. baumannii = experiment: Broth microdilution MIC (Example 5); format: cell-based, Acinetobacter baumannii
Protocol: as §1, §2, §3, §4, §5, §6, §7

P. aeruginosa [9] = experiment: Broth microdilution MIC (Example 5); format: cell-based, Pseudomonas aeruginosa
Protocol: as §1, §2, §3, §4, §5, §6, §7

S. aureus = experiment: Broth microdilution MIC (Example 5); format: cell-based, Staphylococcus aureus
Protocol: as §1, §2, §3, §4, §5, §6, §7

K. pneumoniae = experiment: Broth microdilution MIC (Example 5); format: cell-based, Klebsiella pneumoniae
Protocol: as §1, §2, §3, §4, §5, §6, §7

E. coli [10] = settings: E. coli MMX 102 (ATCC 25922); cited from earlier work
[11] = ATCC700057, C. difficile MMX 4381 (ATCC 700057), QC, CCI
[12] = C. difficile MMX 8272, ribotype 255, CCI
[13] = C. difficile MMX 8279, ribotype 005, CCR
[14] = C. difficile MMX 8281, ribotype 010, CCR
[15] = NCTC13307, C. difficile MMX 5681 (NCTC 13307), ribotype 012, CCR
[16] = NCTC13336, C. difficile MMX 5680 (NCTC 13336), ribotype 027, CCI METR

C1C[S][Bi]([S]CC[S][Bi]2[S]CC[S]2)[S]1 [BisEDT, bismuth-1,2-ethanedithiol]
MIC QC range (in parentheses) ([1]; E. coli ATCC 25922): (0.5-4)1 μg/mL
MIC QC range (in parentheses) ([1]; P. aeruginosa ATCC 27853): (0.5-4) μg/mL
MIC QC range (in parentheses) ([1]; S. aureus ATCC 29213): (0.12-1) μg/mL
MIC, acceptable range (E. coli ATCC 25922): 0.5 to 2 µg/mL
MIC, expected results (E. coli ATCC 25922): 1 µg/mL
MIC, acceptable range (S. aureus ATCC 29213): 0.13 to 1 µg/mL
MIC, expected results (S. aureus ATCC 29213): 0.25 to 0.5 µg/mL
Change of BisEDT MIC, baseline vs post-baseline isolates from the same source [2]: unchanged

CO/N=C(\C(=O)N[C@@H]1C(=O)N2C(C(=O)O)=C(CSc3nc(=O)c(=O)[nH]n3C)CS[C@H]12)c1csc(N)n1 [Ceftriaxone]
CLSI QC range of MIC (N. gonorrhoeae): (0.004-0.015) μg/mL

CCc1c(Cl)c(O)c(Cl)c(O)c1C(=O)O[C@H]1[C@H](O)[C@H](OC)[C@H](OC/C2=C\C=C\C[C@H](O)/C(C)=C/[C@H](CC)[C@@H](O[C@@H]3OC(C)(C)[C@@H](OC(=O)C(C)C)[C@H](O)[C@@H]3O)/C(C)=C/C(C)=C/C[C@@H]([C@@H](C)O)OC2=O)O[C@@H]1C [Fidaxomicin]
CLSI QC range of MIC (C. difficile [3]): (0.06-0.25) μg/mL
MIC (C. difficile [4]; [11]): 0.25 µg/mL (≈ 0.236 µM)
MIC (C. difficile [4]; [12]): 0.5 µg/mL (≈ 0.473 µM)
MIC (C. difficile [4]; [13]): 0.5 µg/mL (≈ 0.473 µM)
MIC (C. difficile [4]; [14]): 0.5 µg/mL (≈ 0.473 µM)
MIC (C. difficile [4]; [15]): 0.5 µg/mL (≈ 0.473 µM)
MIC (C. difficile [4]; [16]): 4 µg/mL (≈ 3.78 µM)
MIC (B. fragilis [5]): > 64 µg/mL

Cc1ncc([N+](=O)[O-])n1CCO [Metronidazole]
CLSI QC range of MIC (C. difficile [3]): (0.12-0.5) μg/mL
MIC (C. difficile [4]; [11]): 0.5 µg/mL (≈ 2.92 µM)
MIC (C. difficile [4]; [12]): 0.5 µg/mL (≈ 2.92 µM)
MIC (C. difficile [4]; [13]): 0.5 µg/mL (≈ 2.92 µM)
MIC (C. difficile [4]; [14]): 8 µg/mL (≈ 46.7 µM)
MIC (C. difficile [4]; [15]): 0.5 µg/mL (≈ 2.92 µM)
MIC (C. difficile [4]; [16]): > 64 µg/mL
CLSI QC range of MIC (B. fragilis [6]): (0.25-1) μg/mL
MIC (B. fragilis [5]): 0.5 µg/mL (≈ 2.92 µM)

Gentamicin [reference compound]
MIC (E. coli [7]; E. coli MMX 102 (ATCC 25922), QC): 1 µg/mL
MIC (E. coli [7]; E. coli MMX 5980 (ATCC BAA-2469), NDM-1): >64 µg/mL
MIC (E. coli [7]; E. coli MMX 8423, ESBL, LevR CAZR GmR): 64 µg/mL
MIC (E. coli [7]; E. coli MMX 8424, ESBL, CAZR): 0.25 µg/mL
MIC (E. coli [7]; E. coli MMX 8425, ESBL, LevR CAZR GmR): >64 µg/mL
MIC (E. cloacae): >64 µg/mL
MIC (E. faecium; E. faecium MMX 485): >64 µg/mL
MIC (E. faecium; E. faecium MMX 752): >64 µg/mL
CLSI QC range of MIC (P. aeruginosa [8]): (0.5-2) μg/mL
MIC (E. faecalis; E. faecalis MMX 8960): >64 µg/mL
MIC (E. faecalis; E. faecalis MMX 8961): 8 µg/mL
MIC (E. faecalis; E. faecalis MMX 8962): >64 µg/mL
MIC (A. baumannii; A. baumannii MMX 2592, MDR): >64 µg/mL
MIC (A. baumannii; A. baumannii MMX 2593, MDR): >64 µg/mL
MIC (A. baumannii; A. baumannii MMX 3372, MDR): 0.5 µg/mL
MIC (A. baumannii; A. baumannii MMX 3373, Sensitive): 0.12 µg/mL
MIC (A. baumannii; A. baumannii MMX 4651 (NCTC 13304), MDR, OXA-27): 8 µg/mL
MIC (P. aeruginosa [9]; P. aeruginosa MMX 103 (ATCC 27853), QC): 1 µg/mL
MIC (P. aeruginosa [9]; P. aeruginosa MMX 1381, MDR): 8 µg/mL
MIC (P. aeruginosa [9]; P. aeruginosa MMX 2562, MDR): 8 µg/mL
MIC (P. aeruginosa [9]; P. aeruginosa MMX 3991, MDR): 4 µg/mL
MIC (P. aeruginosa [9]; P. aeruginosa MMX 4654, IMP-7): >64 µg/mL
MIC (P. aeruginosa [9]; P. aeruginosa MMX 4697, VIM-2): 4 µg/mL
MIC (S. aureus; S. aureus MMX 101 (ATCC 29213), QC, MSSA): 0.12 µg/mL
MIC (S. aureus; S. aureus MMX 5373, MRSA): 0.25 µg/mL
MIC (S. aureus; S. aureus MMX 6311, MRSA): 0.25 µg/mL
MIC (S. aureus; S. aureus MMX 9203, MRSA): 0.12 µg/mL
MIC (S. aureus; S. aureus MMX 9204, MRSA): 0.25 µg/mL
MIC (S. aureus; S. aureus MMX 9205, MRSA): 0.25 µg/mL
MIC (K. pneumoniae; K. pneumoniae MMX 4622, KPC-2): 0.25 µg/mL
MIC (K. pneumoniae; K. pneumoniae MMX 4623, KPC-2): 64 µg/mL
MIC (K. pneumoniae; K. pneumoniae MMX 4653, KPC-3): 1 µg/mL
MIC (K. pneumoniae; K. pneumoniae MMX 4683, KPC-2): 1 µg/mL
MIC (K. pneumoniae; K. pneumoniae MMX 4684, ESBL): 0.25 µg/mL
MIC (K. pneumoniae; K. pneumoniae MMX 4685, ESBL): 1 µg/mL
MIC (K. pneumoniae; K. pneumoniae MMX 4694, KPC-3): 8 µg/mL
MIC (K. pneumoniae; K. pneumoniae MMX 5979, NDM-1): >64 µg/mL
CLSI QC range of MIC (E. coli [10]): (0.25-1) μg/mL
